pKa data for 92 molecules are collected here from the pKa sets of Baltruschat and Czodrowski (2020).

For the first data set the following is noted: acidic group.
In general, pKa refers to the pH at which an ionisable group is half protonated. The low end stands for a group that gives up its proton readily, the high end for a group that holds its proton tightly. The molecule `O=C/C(O)=C\[O-]` came in with a pKa of 13. With `CCc1nc2cc3ccccc3cc2[nH]1`, the pKa turned out to be 12.9. `Oc1ccc(-c2ccccc2)cc1` came in with a pKa of 9.47. In turn, `C[NH+]1[C@H]2CC=C(C(=O)O)[C@@H]1CC2` registered a pKa of 3.93. Molecule `CC(=O)Nc1nnc(-c2ccccc2)s1` came in with a pKa of 8.9. `COc1ccc2[nH]c3c(c2c1)CCN=C3C` returned a pKa of 14.5. For the molecule `O=c1[nH]cc(SSc2c[nH]c(=O)[nH]c2=O)c(=O)[nH]1`, the pKa was 8. Consider `O=[N+]([O-])c1n[nH]c(-n2cncn2)n1`, for which the pKa amounted to 2. As to `Cc1ccc(O)c2[n+]1CCS2`, the pKa was determined as 4.7.

Regarding `CC1(C)O[C@@H]2CC(=O)OC[C@]23[C@@H]1CC(=O)[C@@]1(C)[C@H]3C[C@](C)(CC2CCOC2)C[C@]12O[C@H]2C(=O)O` (stereo partly drawn), the pKa worked out at 2.7. Take `CC1(C)[C@H]2CC[C@@]1(C)[C@@H](O)[C@H]2C(=O)O`: the pKa stood at 2.05. Take `CC(=N\O)/C(C)=N/O`: the pKa worked out at 10.6. Regarding `Cc1c(Cc2c(C)n(C)[n+](-c3ccccc3)c2O)c(=O)n(-c2ccccc2)n1C`, the pKa was 1.51.

Molecule `COc1ccc(C(=S)Nc2ccc(Cl)c(Cl)c2)cc1` yielded a pKa of 10.1. Molecule `CCOc1cccc(C)c1C(=O)O` displayed a pKa of 3.51.

Molecule `O=C(O)Cn1ccc2ccccc21` had a pKa of 3.4.

`CCOc1ccc(O)cc1` showed a pKa of 10.2. As to `Oc1ccc2ccncc2c1`, the pKa amounted to 8.88. Same read-out and setting: the result for `Oc1c(Br)cc(Br)c2cccnc12` reads 7.3; that for `O=C(NO)C1CCCCC1`, 9.87; that for `O=C(O)c1ccccc1/N=C/C=C/c1ccccc1`, 6.12.

In the case of `COc1cc(OC)nc(NS(=O)(=O)c2ccc(O)cc2)n1`, the pKa turned out to be 7.29. `Cc1ccc(C(=S)Nc2ccc(F)cc2)cc1`: the pKa was 11. As for `C[n+]1ccc(-c2nc3ccccc3[nH]2)cc1`, the pKa was determined as 8.89. Take `C[NH2+]CC(=O)O`: the pKa worked out at 2.24. The molecule `O=S1(=O)OC(c2cc(Br)c(O)c(Br)c2)(c2cc(Br)c(O)c(Br)c2)c2ccccc21` registered a pKa of 4.2. `O=C([O-])C[NH2+]CCc1nnn[nH]1` gave a pKa of 4.32. `N#CCCN(CCC#N)c1nnn[nH]1` showed a pKa of 4.85.

`N#Cc1ccc(CC(C#N)C#N)cc1` yielded a pKa of 11. For the molecule `O=C(O)[C@@H]1CCC[NH2+]1`, the pKa was found to be 1.94. Take `COc1ccc(/C(=C\C(=O)c2ccc(S(=O)(=O)[O-])cc2)CC(=O)c2ccc(S(=O)(=O)[O-])cc2)cc1S(=O)(=O)[O-]`: the pKa worked out at 10.7. Molecule `[O-]c1ncnc2nc[nH]c12` registered a pKa of 12.1. The molecule `CCCNC(O)=S` came in with a pKa of 0.52.

Consider `Oc1ccc(O)c2ccccc12`, for which the pKa was found to be 9.25. Molecule `O=C(O)[C@]12C[NH2+]CC[C@H]1O2` registered a pKa of 2.63.

Still in this data set, the particulars now being: basic group.
In turn, `C#C[C@]1(O)C[C@@H](C)N(C)[C@@H]2CCCC[C@H]21` displayed a pKa of 9.53. Turning to `CCc1nc2cc3ccccc3cc2[nH]1`, the pKa amounted to 6.14. Still for that read-out and setting: under `NC[C@H](O)C(=O)[O-]` stands 9.27; under `CCCC(=O)OCCN(C)C`, 8.31; under `C[n+]1c([S-])ccnc1[S-]`, 6.96.

In turn, `CC(C)(C)N1CCCC(=O)C(O)CCC1` (stereo not drawn) gave a pKa of 7.6. In turn, `OCc1cc(-c2ccccc2)nnc1NCC[NH+]1CCOCC1` showed a pKa of 3.81. In turn, `N/C(=N\O)C(N)c1ccccc1` (stereo not drawn) came in with a pKa of 7.15.

As for `NC1Cc2ccccc2C1`, the pKa was found to be 9.55. For `CCNCC(=O)N(CC)CC`, the pKa turned out to be 8.78.

As to `C[C@@H]1N[C@@H]1C`, the pKa was determined as 5.34. In turn, `COc1ccc2[nH]c3c(c2c1)CCN=C3C` gave a pKa of 9.21.

The molecule `[NH3+]CCNCCO` returned a pKa of 6.66. Molecule `CCc1cnccc1N` registered a pKa of 9.17. As for `C=C[C@]1(O)C[C@@H](C)N[C@@H]2CCCC[C@H]21`, the pKa is 9.98. The molecule `Cc1cc([O-])nc(-n2nc(C)cc2O)n1` gave a pKa of 10. `CNCc1ccccc1`: the pKa came out at 9.64.

`CCN1CCCC1` returned a pKa of 11. On the same count and under the same terms, the result for `CCCn1cncn1` reads 2.36. `COc1ccc(CN)cc1OC` returned a pKa of 9.39. For `CCN(c1ccccc1)C(C)(C)C`, the pKa amounted to 8.02. Same read-out and setting: the result for `CN1CC[C@@]23c4c5ccc(O)c4O[C@]2(C)C(=O)CC[C@@H]3[C@@H]1C5` reads 8.08; that for `CC(Br)(CN)[N+](=O)[O-]` (stereo not drawn), 6.15; that for `CCCCCCCCCCCCCCCCN(CC(C)O)CC(C)O` (stereo not drawn), 9.19.

`CCN(CC)CCCC(C)Nc1cc(OC)cc2cccnc12` (stereo not drawn) came in with a pKa of 10.3. The molecule `Cc1cc(N)ccc1-c1ccc(N)cc1C` gave a pKa of 4.9.

`CCCCCCCCCCCCCCCCCCN(CC(O)CC)CC(O)CC` (stereo not drawn) displayed a pKa of 5.6.

On to `C#CC(C)(C)N(C)C(C)C`, for which the pKa came out at 8.7. Molecule `CCOCCNc1ccc(Cl)cc1` returned a pKa of 3.28.

As to `Oc1ccc2ccncc2c1`, the pKa came to 5.7. Same read-out and setting: under `CC(CC(c1ccccc1)c1ccccc1)N1CCCCC1` (stereo not drawn) stands 8.8; under `Cc1cc2c(cc1N)Sc1cc(N(C)C)ccc1N2`, 5.41; under `Oc1c(Br)cc(Br)c2cccnc12`, 2.6. Same read-out and setting: the result for `Cc1cccc2ncccc12` reads 5; that for `CCNC(C)C(=O)[O-]` (stereo not drawn), 10.2.

As for `CCNN`, the pKa worked out at 7.95. `CCNC(C)C` registered a pKa of 11. Same read-out and setting: under `Nc1cccc(S(N)(=O)=O)c1` stands 2.87; under `CC(C=C(c1cccs1)c1cccs1)N1CCCCCC1` (stereo not drawn), 7.96; under `CN(C)CCCCCCCCNC(=O)/C=N/[O-]`, 10.5. With `Nc1cccc2ccc([N+](=O)[O-])cc12`, the pKa stood at 2.83. As for `c1ccc2c(c1)CNCCCNCc1ccccc1OCCCO2`, the pKa came out at 10.

In turn, `C[n+]1ccc(-c2nc3ccccc3[nH]2)cc1` came in with a pKa of 2.26. In the case of `Nc1ccc([NH3+])c(N)c1`, the pKa worked out at 3.69. On the same count and under the same terms, the result for `CN(C)c1ccc2cc3ccc(N(C)C)cc3nc2c1` reads 10.4. The molecule `CC[NH+](CC)CCC(C)Nc1c2ccc(Cl)cc2nc2ccc(OC)cc12` (stereo not drawn) showed a pKa of 7.2.

`COc1cc(S(C)=O)ccc1-c1nc2ccccc2[nH]1` (stereo not drawn) registered a pKa of 4.76. The same measure, in the same setting: under `Cn1ccc(=S)cc1` stands 1.36; under `Clc1ccc(C2CN2)cc1` (stereo not drawn), 6.18.

Regarding `CC(C)CNC(C)C`, the pKa was 10.6. Consider `Cc1cc(-c2ccccc2)n[n+](CCN2CCOCC2)c1N`, for which the pKa turned out to be 4.84. The molecule `CCOC(=O)c1cc(-c2ccccc2)nnc1NCCN1CCOCC1` showed a pKa of 6.67. `NCC(=O)C[NH3+]` had a pKa of 6.89. `c1[nH]c(Cc2c[nH]c(Cc3[nH]cc(Cc4c[nH]c[nH+]4)[nH+]3)n2)c[nH+]1`: the pKa is 3.58. The same measure, in the same setting: under `CN(C)c1cccc(C#N)c1` stands 2.97. For the molecule `CC(C)N/C=[NH+]/c1ccc(-c2cncn2C)cc1`, the pKa was 6.51. Take `[O-]c1ncnc2nc[nH]c12`: the pKa was 8.81. `Cc1cccc(C)n1` registered a pKa of 6.85. The molecule `CCCCCCCCN(CC(O)CC)CC(O)CC` (stereo not drawn) showed a pKa of 7.5. Molecule `CC[NH+](CC)CCNc1nc(N)nc(C)c1C` gave a pKa of 7.9. As to `CSc1cc2ccccc2cn1`, the pKa is 3.41. The molecule `CN(CCC[NH+](C)C)CCC[NH+](C)C` returned a pKa of 6.4. The molecule `OCCCNc1nc(NCCCO)nc(NCCCO)n1` yielded a pKa of 5.48.
